Experimental data taken from US12606561B2, “Substituted pyrazolo[1,5-a][1,3,5]triazines as CDK inhibitors” (QURIENT CO., LTD., priority 2018, dated 2026).

Legend:
[1] = target: T1, CDK5/p25 (Homo sapiens, UniProt Q00535); assay: Enzymatic assay for CDK5 (LANCE Ultra kinase assay, FRET based); type: biochemical; settings: ATP at Km
T1 construct: purchased Invitrogen PR8543B
How it was run: (§1)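 Inhibition was measured at ATP Km with 68 nM ULight-MBP peptide and CDK2/Cyclin A ([…]) or CDK5/p25 ([…]), using 8-dose 4-fold compound dilutions from DMSO. Kinase reaction ran 60 min at 23° C, then Eu anti-phospho-MBP plus EDTA were added for another 60 min before the fluorescence read.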

[2] = target: T2, CDK1/Cyclin B (Homo sapiens, UniProt P06493); assay: Enzymatic assay for CDK1 (LANCE Ultra kinase assay, FRET based); type: biochemical; settings: ATP at Km; read-out: CDK1 enzymatic activity IC50
T2 construct: purchased Invitrogen PR4768C
T2 sequence (P06493 whole entry): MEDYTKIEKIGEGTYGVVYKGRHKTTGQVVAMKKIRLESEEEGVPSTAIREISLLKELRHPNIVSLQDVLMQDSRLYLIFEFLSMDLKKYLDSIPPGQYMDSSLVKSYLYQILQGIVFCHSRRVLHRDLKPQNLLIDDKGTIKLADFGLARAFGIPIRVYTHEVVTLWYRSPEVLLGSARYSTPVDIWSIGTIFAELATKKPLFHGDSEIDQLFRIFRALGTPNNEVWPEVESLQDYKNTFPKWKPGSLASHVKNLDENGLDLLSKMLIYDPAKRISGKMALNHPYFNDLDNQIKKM
T2 sequence (P14635 whole entry partner): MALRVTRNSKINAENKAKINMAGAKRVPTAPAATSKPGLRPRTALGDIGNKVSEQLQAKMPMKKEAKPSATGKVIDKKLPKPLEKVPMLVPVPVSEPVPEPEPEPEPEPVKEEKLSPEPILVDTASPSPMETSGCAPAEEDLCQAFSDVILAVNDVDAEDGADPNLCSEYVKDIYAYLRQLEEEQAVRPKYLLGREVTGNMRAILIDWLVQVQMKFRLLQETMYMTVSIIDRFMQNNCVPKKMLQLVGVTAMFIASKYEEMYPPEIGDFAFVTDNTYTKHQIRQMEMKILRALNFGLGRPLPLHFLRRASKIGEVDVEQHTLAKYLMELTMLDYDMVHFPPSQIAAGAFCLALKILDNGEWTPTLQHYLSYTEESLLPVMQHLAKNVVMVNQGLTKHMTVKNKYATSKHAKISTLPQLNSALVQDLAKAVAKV
How it was run: (§2)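 Purified CDK7/Cyclin H/MNAT1 or CDK1/Cyclin B complexes were tested for inhibition at Km ATP. Phosphorylation of a ULight-labelled peptide was detected by FRET with a Europium anti-phospho antibody (LANCE Ultra).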

[3] = test system: A2780; assay: A2780 viability assay (CellTiter-Glo, 72 hours); type: cell-based; settings: Homo sapiens; A2780 cells
Method: (§3) Human […] cell line, MV4-11_(ATCC, Cat #CRL-9591), NSCLC (Non-small cell lung cancer) cell line H460 (ATCC, Cat #HTB-177), A2780 (ECACC, Cat #93112519) and OVCAR-3(ATCC, Cat #HTB-161) were obtained from ATCC. Cells were grown in RPMI-1640 media (Invitrogen, Cat #22400-089) supplemented with 10% FBS (Invitrogen, Cat #10099141) and 1% penicillin/streptomycin (Invitrogen, Cat #15070063) and cultured at 37° C., 5% CO2 in a humidified chamber. All cell lines were routinely tested for mycoplasma.
(§4) To effect of the CDK7 inhibitor to inhibit the growth of target cancer cells, viability assay were conducted a 72 hour time period. Briefly, the candidate cell line was plated in 96 well plate at the following density of cells respectively. 1×10^4 cells/well for MV4-11, 5×10^3 for H460 and OVCAR-3, and 1×10^3 for A2780. After 24 hours, the cells were treated with various concentrations of the compound (ranging from 0.0015 uM to 10 uM). DMSO solvent without compound served as a control and final DMSO concentration lest than 0.1%. After 72 hours of incubation at 37° C., 5% CO2 incubator, cells were analyzed for the viability using the CellTiter-Glo Luminescent Cell Viability Assay (Promega, Cat #G7570). All viability assays were performed in duplicate and Luminescence was read using an Envision (Perkin Elmer, USA). Data was analyzed using XLfit software.

[4] = test system: OVCAR-3; assay: OVCAR-3 viability assay (CellTiter-Glo, 72 hours); type: cell-based; settings: Homo sapiens; OVCAR-3 cells
Method: as §3, §4

[5] = target: T3, CDK7/Cyclin H/MNAT1 (Homo sapiens, UniProt P50613); assay: Enzymatic assay for CDK7 (LANCE Ultra kinase assay, FRET based); type: biochemical; settings: for IC50: ATP at Km
T3 construct: purchased Invitrogen PR6749B
T3 sequence (P50613 whole entry): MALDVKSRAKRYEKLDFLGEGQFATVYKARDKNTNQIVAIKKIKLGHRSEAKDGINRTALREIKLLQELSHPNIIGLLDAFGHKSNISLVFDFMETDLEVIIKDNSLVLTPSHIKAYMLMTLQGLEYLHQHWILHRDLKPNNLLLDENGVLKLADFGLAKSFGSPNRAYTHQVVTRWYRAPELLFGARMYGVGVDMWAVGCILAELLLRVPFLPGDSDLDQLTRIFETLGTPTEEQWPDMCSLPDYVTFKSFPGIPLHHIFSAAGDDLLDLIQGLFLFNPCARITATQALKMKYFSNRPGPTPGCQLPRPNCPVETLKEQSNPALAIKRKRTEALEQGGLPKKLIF
T3 sequence (P51946 whole entry partner): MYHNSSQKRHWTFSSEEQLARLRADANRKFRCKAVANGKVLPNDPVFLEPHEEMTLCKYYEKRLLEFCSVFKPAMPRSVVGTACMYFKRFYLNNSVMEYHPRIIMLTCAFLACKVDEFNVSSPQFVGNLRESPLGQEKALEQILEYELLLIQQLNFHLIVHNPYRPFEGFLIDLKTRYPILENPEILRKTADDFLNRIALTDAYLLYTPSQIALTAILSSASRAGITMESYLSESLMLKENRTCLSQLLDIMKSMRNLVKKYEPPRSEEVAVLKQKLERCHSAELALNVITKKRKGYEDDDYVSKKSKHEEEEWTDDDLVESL
T3 sequence (P51948 whole entry partner): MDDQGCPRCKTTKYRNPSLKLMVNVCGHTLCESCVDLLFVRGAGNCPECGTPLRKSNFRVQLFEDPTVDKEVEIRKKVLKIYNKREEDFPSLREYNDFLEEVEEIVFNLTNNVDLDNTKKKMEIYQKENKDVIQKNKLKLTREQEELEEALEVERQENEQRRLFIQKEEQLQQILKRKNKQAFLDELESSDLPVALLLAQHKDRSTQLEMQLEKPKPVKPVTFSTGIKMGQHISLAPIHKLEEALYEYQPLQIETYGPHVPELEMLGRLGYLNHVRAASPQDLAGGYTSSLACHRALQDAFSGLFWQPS
How it was run: as §2

[6] = target: T4, CDK2/Cyclin A (Homo sapiens, UniProt P24941); assay: Enzymatic assay for CDK2 (LANCE Ultra kinase assay, FRET based); type: biochemical; settings: ATP at Km
T4 construct: purchased Invitrogen PV6290
How it was run: as §1

T1 sequence (Q00535 whole entry): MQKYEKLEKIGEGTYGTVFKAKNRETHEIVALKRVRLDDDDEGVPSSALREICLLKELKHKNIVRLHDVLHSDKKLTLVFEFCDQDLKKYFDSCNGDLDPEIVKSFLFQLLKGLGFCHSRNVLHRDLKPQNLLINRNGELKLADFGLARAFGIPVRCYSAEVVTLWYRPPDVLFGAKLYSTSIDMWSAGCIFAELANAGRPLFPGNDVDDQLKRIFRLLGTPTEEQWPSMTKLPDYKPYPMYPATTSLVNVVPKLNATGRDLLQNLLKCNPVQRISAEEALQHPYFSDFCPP
T1 sequence (Q15078 99-307 partner limits assumed): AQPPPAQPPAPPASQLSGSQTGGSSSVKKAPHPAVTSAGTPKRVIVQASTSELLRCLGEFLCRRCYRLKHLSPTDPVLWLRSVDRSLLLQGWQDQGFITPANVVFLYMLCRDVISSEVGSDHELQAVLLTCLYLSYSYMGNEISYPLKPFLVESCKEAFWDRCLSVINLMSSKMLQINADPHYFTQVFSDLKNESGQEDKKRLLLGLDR

IC50 [1] [nM]	IC50 [2] [nM]	IC50 [3] [nM]	IC50 [4] [nM]	IC50 [5] [nM]	CDK1/CDK7: Selectivity of CDK7 inhibition over CDK1 inhibition [5]	CDK2/CDK7: Selectivity of CDK7 inhibition over CDK2 inhibition [5]	CDK5/CDK7: Selectivity of CDK7 inhibition over CDK5 inhibition [5]	IC50 [6] [nM]	SMILES
> 1000	> 1000	< 1000	< 1000	< 100	A (A indicates [fold] > 500)	A (A indicates [fold] > 500)	A (A indicates [fold] > 500)	> 1000	C=C(F)C(=O)Nc1ccc2c(-c3ccccc3CNc3nc(NCC4CNCCO4)nc4c(C(C)C)cnn34)nccc2c1 (racemic) [Compound 80]
> 1000	> 1000	< 1000	< 1000	< 100	A (A indicates [fold] > 500)	A (A indicates [fold] > 500)	A (A indicates [fold] > 500)	> 1000	C=C(F)C(=O)Nc1ccc2c(-c3ccccc3CNc3nc(-c4cccc(OC5CCNC5)c4)nc4c(C(C)C)cnn34)nccc2c1 (racemic) [Compound 87]
> 1000	> 1000	< 1000	< 1000	100 to 1000	B (B indicates 50 < [fold] ≤ 500)	B (B indicates 50 < [fold] ≤ 500)	B (B indicates 50 < [fold] ≤ 500)	> 1000	C=C(F)C(=O)Nc1ccc2c(-c3ccccc3CNc3nc(NC4CCC(OC)C4)nc4c(C(C)C)cnn34)nccc2c1 (racemic) [Compound 98]
> 1000	> 1000	< 1000	< 1000	100 to 1000	B (B indicates 50 < [fold] ≤ 500)	B (B indicates 50 < [fold] ≤ 500)	B (B indicates 50 < [fold] ≤ 500)	> 1000	C=C(F)C(=O)Nc1ccc2c(-c3ccccc3CNc3nc(NC4CCC(OC)C4)nc4c(C(C)C)cnn34)nccc2c1 (single isomer, unassigned) [Compound 97]
> 1000	> 1000	< 1000	< 1000	100 to 1000	B (B indicates 50 < [fold] ≤ 500)	B (B indicates 50 < [fold] ≤ 500)	B (B indicates 50 < [fold] ≤ 500)	> 1000	C=C(F)C(=O)Nc1ccc2c(-c3ccccc3CNc3cc(NC4CCC(OC)CC4)nc4c(C(C)C)cnn34)nccc2c1 (centres unmarked) [Compound 81]
> 1000	> 1000	< 1000	< 1000	< 100	A (A indicates [fold] > 500)	A (A indicates [fold] > 500)	A (A indicates [fold] > 500)	> 1000	C=C(F)C(=O)Nc1ccc2c(-c3ccccc3CNc3cc(NC[C@H]4CCNC[C@@H]4O)nc4c(C(C)C)cnn34)nccc2c1 [Compound 82]
> 1000	> 1000	< 1000	< 1000	< 100	A (A indicates [fold] > 500)	A (A indicates [fold] > 500)	A (A indicates [fold] > 500)	> 1000	C=C(F)C(=O)Nc1ccc2c(-c3ccccc3CNc3nc(NC[C@H]4CNC[C@@H]4O)nc4c(C(C)C)cnn34)nccc2c1 [Compound 83]
> 1000	> 1000	< 1000	< 1000	100 to 1000	B (B indicates 50 < [fold] ≤ 500)	B (B indicates 50 < [fold] ≤ 500)	B (B indicates 50 < [fold] ≤ 500)	> 1000	C=C(F)C(=O)Nc1ccc2c(-c3ccccc3CNc3nc(NC4CCC(OC)CC4)nc4c(C(C)C)cnn34)nccc2c1 (centres unmarked) [Compound 84]
> 1000	> 1000	< 1000	< 1000	100 to 1000	B (B indicates 50 < [fold] ≤ 500)	B (B indicates 50 < [fold] ≤ 500)	B (B indicates 50 < [fold] ≤ 500)	> 1000	C=C(F)C(=O)Nc1ccc2c(-c3ccccc3CNc3nc(N4CCC(OCC)CC4)nc4c(C(C)C)cnn34)nccc2c1 [Compound 85]
> 1000	> 1000	1000 to 10000	< 1000	> 1000	C (C indicates [fold] ≤ 50)	C (C indicates [fold] ≤ 50)	C (C indicates [fold] ≤ 50)	> 1000	C=C(F)C(=O)Nc1ccc2c(-c3ccccc3CNc3nc(N4CCC(OC(F)(F)F)CC4)nc4c(C(C)C)cnn34)nccc2c1 [Compound 86]
> 1000	> 1000	< 1000	< 1000	100 to 1000	B (B indicates 50 < [fold] ≤ 500)	B (B indicates 50 < [fold] ≤ 500)	B (B indicates 50 < [fold] ≤ 500)	> 1000	C=C(F)C(=O)Nc1ccc2c(-c3ccccc3CNc3nc(N4CCC(OC)CC4)nc4c(C(C)C)cnn34)nccc2c1 [Compound 88]
> 1000	> 1000	1000 to 10000	1000 to 10000	> 1000	C (C indicates [fold] ≤ 50)	C (C indicates [fold] ≤ 50)	C (C indicates [fold] ≤ 50)	> 1000	C=C(F)C(=O)Nc1ccc2c(-c3ccccc3CNc3nc(N4CCC(OC(C)C)CC4)nc4c(C(C)C)cnn34)nccc2c1 [Compound 89]
> 1000	> 1000	< 1000	–	< 100	A (A indicates [fold] > 500)	A (A indicates [fold] > 500)	A (A indicates [fold] > 500)	> 1000	C=CC(=O)Nc1ccc2c(-c3ccccc3CNc3nc(N4CCc5ncccc5C4)nc4c(C(C)C)cnn34)nccc2c1 [Compound 212]
> 1000	> 1000	1000 to 10000	–	> 1000	C (C indicates [fold] ≤ 50)	C (C indicates [fold] ≤ 50)	C (C indicates [fold] ≤ 50)	> 1000	C=CC(=O)Nc1ccc2c(-c3cccc(C(F)(F)F)c3CNc3nc(Nc4cccnc4)nc4c(C(C)C)cnn34)nccc2c1 [Compound 213]
> 1000	> 1000	< 1000	–	< 100	A (A indicates [fold] > 500)	A (A indicates [fold] > 500)	A (A indicates [fold] > 500)	> 1000	CC(C)c1cnn2c(NCc3ccccc3-c3nccc4cc(NC(=O)/C=C/CN(C)C)ccc34)cc(N3CCNC(C(F)(F)F)C3)nc12 (centres unmarked) [Compound 214]
> 1000	> 1000	< 1000	–	< 100	A (A indicates [fold] > 500)	A (A indicates [fold] > 500)	A (A indicates [fold] > 500)	> 1000	C=CC(=O)Nc1ccc2c(-c3ccccc3CNc3nc(NC4CCC(C)(C)NC4)nc4c(C(F)(F)F)cnn34)nccc2c1 (centres unmarked) [Compound 215]
